In publication PMC3541360 (2013):

Key:
[1] = tested on: -80 G4 (oligo Tr-80-I) (DNA, G4) CGGGGGCGCGTGAGGGGCGGGGTGGGC; assay: fluorescent intercalator displacement (thiazole orange); details: 60 mM K+; 10 mM potassium cacodylate pH 7.4, 50 mM KCl; 0.25 µM DNA, 0.50 µM thiazole orange displaced
[2] = tested on: MNSG4 (oligo TrMNS-I) (DNA, G4) TGGGTCTGAGGGAGGAGGGGCTGGGGGC; assay: as above; details: 60 mM K+; 10 mM potassium cacodylate pH 7.4, 50 mM KCl; 0.25 µM DNA, 0.50 µM thiazole orange displaced
[3] = tested on: MNSG4 (oligo TrMNS-I) (DNA, G4) TGGGTCTGAGGGAGGAGGGGCTGGGGGC; assay: CD melting, 295 nm; details: 100 mM K+; 10 mM Tris-HCl pH 7.4; 5 µM DNA, 10 µM compound; absolute Tm, free DNA 71.4±0.5 °C

−80 G4DC50 [1] [µM]	MSN1DC50 [2] [µM]	Tm (with ligand) [3] [°C]	SMILES
0.19	0.31	86.2±2.1	[Cl-].[Cl-].[Cl-].[Cl-].[Cu+2].[Cu+2].c1ccc(CN(CCOc2cc(-c3ccccn3)nc(-c3ccccn3)c2)Cc2ccccn2)nc1
0.55	0.76	–	[Pt+2].[S-]CCN1CCCCC1.c1ccc(-c2cc(OCCN3CCOCC3)cc(-c3ccccn3)n2)nc1
2.22	0.39	–	[Cl-].[Cl-].[Pt+2].[Pt+2].c1ccc(CN(CCOc2cc(-c3ccccn3)nc(-c3ccccn3)c2)Cc2ccccn2)nc1
